Here are results for two compounds from patent US20250169496A1, “USE OF 2-AMINO-3-HYDROXY-3-METHYLBUTYRIC ACID AND/OR 2-AMINO-3-(4-HYDROXYPHENYL) BUTYRIC ACID” (NANJING TIANNONG BIOTECHNOLOGY CO., LTD., priority 2021, published 2025).

The subject of series [1] is ryegrass under high-temperature stress. Briefly: Ryegrass under high-temperature stress. The series is classed as in vivo. Particulars: for PIABS (photosynthetic performance index): ryegrass after 45° C. for 12 h; for Heat damage index: 45° C. 12 h, recovered 7 d. Here is the method: Set 4 groups for each concentration and meanwhile set a room-temperature blank control. Weigh 0.8 g of ryegrass seeds per bowl, sow them in bowls with a diameter of 8.5 cm, and grow in a greenhouse at 25° C., RH 60%-70% and luminous intensity of 200 μmol m^−2s^−1(12 h illumination/12 h darkness). Start treatment after ryegrass has grown for 7 dby the method of spraying a 2-amino-3-(4-hydroxyphenyl) butyric acid solution on the leaf surface twice in 24 h.24 h after the second treatment, transfer them to an illumination incubator of 45° C. for high-temperature stress treatment, and after 12 h, conduct dark treatment at room temperature for 30 min, then determine the chlorophyll fluorescence of […] leaves by plant efficiency Handy-PEA, then transfer the plants to a 25° C. greenhouse and recover them for 7 d, observe and calculate the damage condition of the plants and calculate the heat damage levels. The heat damage grading standard is shown in Table 9 and the heat damage calculation formula is as follows.

Series [2] relates to Arabidopsis under high-temperature stress. Briefly: Arabidopsis under high-temperature stress. Particulars: for PIABS (photosynthetic performance index): Arabidopsis after 45° C. for 12 h; for Heat damage index: 45° C. 12 h, recovered 7 d. The series is classed as in vivo. The procedure:
Take 2-amino-3-hydroxy-3-methylbutyric acid, dissolve it with distilled water, then dilute the solution with distilled water by gradient into 10 nM, 100 nM, 1,000 nM and 10,000 nM solutions, set a blank control, and meanwhile add 0.02% Tween 20 as a surfactant. Set 4 groups for each concentration and meanwhile set a room-temperature blank control. Sow about 50 Arabidopsis seeds in each bowl with a diameter of 8.5 cm, and grow in a greenhouse at 25° C., RH 60%-70% and luminous intensity of 200 μmol m^−2s^−1(16 h illumination/8 h darkness). Start treatment in 21 d of the Arabidopsis seedling stage by the method of spraying a 2-amino-3-hydroxy-3-methylbutyric acid solution on the leaf surface twice in 24 h. 24 h after the second treatment, transfer them to an illumination incubator of 45° C. for high-temperature stress treatment, and after 12 h, conduct dark treatment at room temperature for 30 min, then determine the chlorophyll fluorescence of Arabidopsis leaves by plant efficiency Handy-PEA, then transfer the plants to a 25° C. greenhouse and recover them for 7 d, observe and calculate the damage condition of the plants and calculate the heat damage levels. The heat damage grading standard is shown in Table 9 and the heat damage index calculation formula is as follows.

The test system of the next series is rat brain glial cells. Particulars: concentration of 10μgmL^−1; cited from earlier work.
The mark [3] stands for this setting: 10,000 nM (so in the source), ryegrass, high-temperature stress, vs 0 nM.
Where [4] appears, read: 10,000 nM, Arabidopsis, high-temperature stress, vs 0 nM.

Regarding `CC(c1ccc(O)cc1)C(N)C(=O)O` (stereo not drawn) [2-amino-3-(4-hydroxyphenyl) butyric acid], the “PIABS (photosynthetic performance index)” value in series [1] (1 nM) was 0.78 ± 0.23bc; in series [1] (10 nM) it was 0.95 ± 0.41bc; in series [1] (100 nM), 1.50 ± 0.54b; in series [1] (1,000 nM), 2.61 ± 1.05ab. Besides, the Heat damage index came out at 81% in series [1] (1 nM, ryegrass); 66.67% in series [1] (10 nM, ryegrass); 55% in series [1] (100 nM, ryegrass); 35% in series [1] (1,000 nM, ryegrass). For the same compound, in series [1] (setting [3]), the “Decrease of heat damage index” value came to 55%. Further, the “Increase of PIABS” value in series [1] (setting [3]) is 366%.
Turning to `CC(C)(O)C(N)C(=O)O` (stereo not drawn) [2-amino-3-hydroxy-3-methylbutyric acid], the “PIABS (photosynthetic performance index)” value in series [2] (10 nM) was 10.60 ± 0.32 c; in series [2] (100 nM), 11.27 ± 0.89 c; in series [2] (1,000 nM) it was 13.61 ± 0.38 b; in series [2] (10,000 nM) it was 15.60 ± 0.78 ab. The Heat damage index is listed as 60% in series [2] (10 nM, Arabidopsis); 45% in series [2] (100 nM, Arabidopsis); 20% in series [2] (1,000 nM, Arabidopsis); 15% in series [2] (10,000 nM, Arabidopsis). For the same compound, the “Decrease of heat damage index” value in series [2] (setting [4]) was determined as 65%. In series [2] (setting [4]), the “Increase of PIABS” value came to 106%. Moreover, the “Toxicity to rat brain glial cells” value in the series on rat brain glial cells was “weakly toxic”.
